Laboratory results taken from ChEMBL document CHEMBL4610129, “Discovery of Novel Selective and Orally Bioavailable Phosphodiesterase-1 Inhibitors for the Efficient Treatment of Idiopathic Pulmonary Fibrosis” (J Med Chem, 2020).
Activity calls are given as the source filed them. No cut-off for these calls is given here.

Assays:
[1] = biological target: cGMP-dependent 3',5'-cyclic phosphodiesterase (Homo sapiens, UniProt O00408); assay: Inhibition of PDE2A (580 to 919 residues) (unknown origin) using [3H]-cGMP substrate incubated for 15 mins by liquid scintillation counting method relative to control
[2] = biological target: cGMP-inhibited 3',5'-cyclic phosphodiesterase 3A (Homo sapiens, UniProt Q14432); assay: Inhibition of PDE3A (679 to 1087 residues) (unknown origin) using [3H]-cAMP substrate incubated for 15 mins by liquid scintillation counting method relative to control
[3] = biological target: High affinity 3',5'-cyclic-AMP phosphodiesterase 7A (Homo sapiens, UniProt Q13946); assay: Inhibition of PDE7A1 (130 to 482 residues) (unknown origin) using [3H]-cAMP substrate incubated for 15 mins by liquid scintillation counting method relative to control
[4] = AUC (0 to infinity) in Sprague-Dawley rat at 5 mg/kg, po; format: ADME, organism-based; parameters: dose 5 mg/kg, time infinity, route oral; details: in vivo
[5] = MRT (0 to t) in Sprague-Dawley rat at 2.5 mg/kg, iv; format: ADME, organism-based; details: in vivo
[6] = Unbound fraction in human plasma; format: ADME, cell-free
[7] = biological target: T1, Cytochrome P450 3A4 (Homo sapiens, UniProt P08684); assay: Inhibition of human CYP3A4 using testosterone as substrate; format: ADME
[8] = biological target: T1, Cytochrome P450 3A4; assay: Inhibition of human CYP3A4 using midazolam as substrate; format: ADME
[9] = tested on: Rattus norvegicus; assay: Anti-pulmonary fibrosis activity in Sprague-Dawley rat model of BLM-induced idiopathic pulmonary fibrosis assessed as reduction in mid-expiratory flow at 10 mg/kg, po dosed daily for 28 days by mka noninvasive pulmonary monitoring system based method; format: functional, organism-based
[10] = species on record: Homo sapiens; assay: Anti-pulmonary fibrosis activity in human HLF assessed as reduction in TGF-beta-induced myofibroblast differentiation by measuring reduction in alpha-SMA protein expression incubated for 48 hrs by Western blot analysis; format: functional
[11] = species on record: Homo sapiens; assay: Anti-pulmonary fibrosis activity in human HLF assessed as reduction in TGF-beta-induced myofibroblast differentiation by measuring reduction in alpha-SMA protein expression incubated for 48 hrs by immunofluorescence staining analysis; format: functional
[12] = species on record: Homo sapiens; assay: Anti-pulmonary fibrosis activity in human HLF assessed as reduction in TGF-beta-induced myofibroblast differentiation by measuring reduction in fibronectin protein expression incubated for 48 hrs by immunofluorescence staining analysis; format: functional

T1 sequence (P08684 whole entry): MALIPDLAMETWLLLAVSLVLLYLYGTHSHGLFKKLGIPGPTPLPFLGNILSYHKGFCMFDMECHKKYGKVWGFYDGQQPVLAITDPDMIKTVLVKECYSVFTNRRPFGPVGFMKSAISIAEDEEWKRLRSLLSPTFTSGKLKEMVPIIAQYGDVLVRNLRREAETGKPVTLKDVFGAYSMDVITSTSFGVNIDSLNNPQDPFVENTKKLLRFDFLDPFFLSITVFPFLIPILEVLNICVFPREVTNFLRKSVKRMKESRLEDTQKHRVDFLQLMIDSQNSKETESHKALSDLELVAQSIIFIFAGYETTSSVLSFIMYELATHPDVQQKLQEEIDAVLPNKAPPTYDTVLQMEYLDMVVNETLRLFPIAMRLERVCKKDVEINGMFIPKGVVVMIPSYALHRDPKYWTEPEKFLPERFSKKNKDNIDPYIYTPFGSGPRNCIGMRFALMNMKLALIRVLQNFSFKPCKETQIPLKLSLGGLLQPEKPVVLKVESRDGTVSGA
Sequence of cGMP-dependent 3',5'-cyclic phosphodiesterase (O00408 whole entry, the tested form may be a part): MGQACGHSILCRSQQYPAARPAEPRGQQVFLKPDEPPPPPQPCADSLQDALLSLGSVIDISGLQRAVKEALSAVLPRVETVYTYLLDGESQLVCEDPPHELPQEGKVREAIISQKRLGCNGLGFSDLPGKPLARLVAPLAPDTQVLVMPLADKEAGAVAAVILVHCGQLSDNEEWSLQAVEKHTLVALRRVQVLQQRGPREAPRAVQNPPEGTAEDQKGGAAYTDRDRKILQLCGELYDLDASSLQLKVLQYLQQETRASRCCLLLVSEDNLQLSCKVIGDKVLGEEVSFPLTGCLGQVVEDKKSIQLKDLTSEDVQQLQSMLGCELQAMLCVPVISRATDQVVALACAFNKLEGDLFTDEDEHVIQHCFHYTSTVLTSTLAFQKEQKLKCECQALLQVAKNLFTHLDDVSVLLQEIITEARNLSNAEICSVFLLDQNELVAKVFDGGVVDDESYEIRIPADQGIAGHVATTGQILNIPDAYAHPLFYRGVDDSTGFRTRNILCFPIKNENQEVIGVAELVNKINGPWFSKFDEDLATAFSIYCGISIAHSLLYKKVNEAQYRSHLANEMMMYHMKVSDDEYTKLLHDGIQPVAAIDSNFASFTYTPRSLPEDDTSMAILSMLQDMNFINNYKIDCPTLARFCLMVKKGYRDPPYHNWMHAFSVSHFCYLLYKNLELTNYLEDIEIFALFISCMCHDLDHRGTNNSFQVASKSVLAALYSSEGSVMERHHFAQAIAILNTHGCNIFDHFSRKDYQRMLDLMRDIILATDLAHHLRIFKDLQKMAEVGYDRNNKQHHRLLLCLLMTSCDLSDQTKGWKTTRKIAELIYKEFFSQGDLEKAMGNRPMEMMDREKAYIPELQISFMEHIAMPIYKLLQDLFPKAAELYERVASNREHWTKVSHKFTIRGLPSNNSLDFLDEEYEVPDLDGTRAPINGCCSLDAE
Sequence of High affinity 3',5'-cyclic-AMP phosphodiesterase 7A (Q13946 whole entry, the tested form may be a part): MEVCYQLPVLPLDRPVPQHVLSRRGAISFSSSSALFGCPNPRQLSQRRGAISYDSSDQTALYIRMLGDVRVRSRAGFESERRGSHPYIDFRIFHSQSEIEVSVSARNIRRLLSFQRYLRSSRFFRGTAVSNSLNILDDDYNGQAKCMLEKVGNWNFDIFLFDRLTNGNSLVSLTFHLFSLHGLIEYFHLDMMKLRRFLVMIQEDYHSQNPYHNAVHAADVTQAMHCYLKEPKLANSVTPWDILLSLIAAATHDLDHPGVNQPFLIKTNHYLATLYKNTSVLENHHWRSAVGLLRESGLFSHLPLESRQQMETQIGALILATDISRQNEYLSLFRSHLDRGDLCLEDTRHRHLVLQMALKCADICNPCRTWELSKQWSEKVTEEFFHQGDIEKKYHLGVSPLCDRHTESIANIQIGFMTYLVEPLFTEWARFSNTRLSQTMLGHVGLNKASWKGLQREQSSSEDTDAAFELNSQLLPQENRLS
Sequence of cGMP-inhibited 3',5'-cyclic phosphodiesterase 3A (Q14432 whole entry, the tested form may be a part): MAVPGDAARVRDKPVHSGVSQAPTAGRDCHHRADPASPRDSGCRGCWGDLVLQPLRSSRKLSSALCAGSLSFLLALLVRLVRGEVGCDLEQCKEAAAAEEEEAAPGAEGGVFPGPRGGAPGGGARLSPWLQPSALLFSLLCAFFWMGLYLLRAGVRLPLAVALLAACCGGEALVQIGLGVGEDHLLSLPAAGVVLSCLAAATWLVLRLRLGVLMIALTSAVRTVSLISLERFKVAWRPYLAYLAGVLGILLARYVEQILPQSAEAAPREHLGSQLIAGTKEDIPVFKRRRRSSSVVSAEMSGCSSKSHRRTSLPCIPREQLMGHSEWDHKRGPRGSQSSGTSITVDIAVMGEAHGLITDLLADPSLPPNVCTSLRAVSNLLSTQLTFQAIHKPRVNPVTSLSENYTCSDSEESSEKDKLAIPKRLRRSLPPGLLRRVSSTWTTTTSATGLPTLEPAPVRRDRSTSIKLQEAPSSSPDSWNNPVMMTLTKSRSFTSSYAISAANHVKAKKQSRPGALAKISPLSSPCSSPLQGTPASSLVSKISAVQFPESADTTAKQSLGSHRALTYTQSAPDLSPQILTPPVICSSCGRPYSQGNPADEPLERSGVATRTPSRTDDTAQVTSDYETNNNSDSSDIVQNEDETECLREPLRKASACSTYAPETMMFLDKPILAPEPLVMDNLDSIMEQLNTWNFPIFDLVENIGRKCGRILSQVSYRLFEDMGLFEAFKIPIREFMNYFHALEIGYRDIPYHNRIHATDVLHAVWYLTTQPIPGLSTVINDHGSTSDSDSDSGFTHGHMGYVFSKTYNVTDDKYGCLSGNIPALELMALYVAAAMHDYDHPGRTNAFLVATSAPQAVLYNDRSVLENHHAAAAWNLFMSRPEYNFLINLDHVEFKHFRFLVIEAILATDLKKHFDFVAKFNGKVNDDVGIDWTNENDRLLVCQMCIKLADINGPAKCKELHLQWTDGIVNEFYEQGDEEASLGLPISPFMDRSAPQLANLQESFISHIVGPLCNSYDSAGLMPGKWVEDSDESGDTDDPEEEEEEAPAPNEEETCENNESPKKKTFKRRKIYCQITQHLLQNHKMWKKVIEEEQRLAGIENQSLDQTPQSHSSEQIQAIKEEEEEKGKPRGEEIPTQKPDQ

Structure (SMILES): C[C@@H](Nc1nc2c(cnn2C(C)(C)C)c(=O)n1Cc1ccc(F)cc1)c1ccc(Cl)cc1
- IC50 [1]: > 10 µM
- IC50 [2]: > 10 µM
- IC50 [3]: > 10 µM
- AUC(0-inf) [4]: 1320 ng·h/mL
- MRT last [5]: 5.81 h
- Fu [6]: 0.1%
- IC50 [7]: > 25 µM
- IC50 [8]: > 25 µM
- Activity [9]: Active
- Activity [10]: Dose-dependent effect
- Activity [11]: Dose-dependent effect
- Activity [12]: Dose-dependent effect
